# Test results published in patent EP1306084A1, “Compositions for the control of parasitic infestations in fish” (Alpharma AS, priority 1998, dated 1999).
# Assay: Specific growth rate after sea transfer (Example 4)
# Type: in vivo, salmon (Salmo salar)
# Details: treated groups, after about 12 weeks; control group 1.79%
# Protocol: About 2,500 salmon (Salmo salar) of average weight 42 grams were treated orally with a daily dosage of 4 mg hexaflumuron per kilo fish for 5 days. The treatment was carried out in freshwater one week before the fish were transferred to sea water. In the sea water, the fish was distributed into 3 different minicages with 800-850 fish in each. At the same time 1,000 untreated fish (from a different fish farm) weighing on average 50 grams were transferred to sea in a neighbouring cage. After being transferred to sea water, the fish were exposed to natural sea lice infection. The number of lice on 10 fish from each cage were counted every third week to check if there was any difference in the number of lice in the cages. When ending the trial, about 12 weeks after the fish had been transferred to sea, the fish in each cage were weighed to check possible differences in growth (SGR, specific growth rate). The water temperature varied between 10-16°C during the trial. […] From 9 weeks on, there was no difference between the groups. The dosage rate that was used in this trial, i.e. 4 mg of hexaflumuron per kg fish per day, is very low. By increasing the dosage the protection time would probably be extended. […] The SRG was measured after about 12 weeks and it was estimated at 1.79% in the control group, and 1.95 - 2.00% in the treated groups.
structure (smiles),measurement,value
O=C(NC(=O)c1c(F)cccc1F)Nc1cc(Cl)c(OC(F)(F)C(F)F)c(Cl)c1 [hexaflumuron],SGR (specific growth rate),1.95 - 2.00%
